From article PMC5693986, “Atomic resolution snapshot of Leishmania ribosome inhibition by the aminoglycoside paromomycin” (Nature Communications, 2017)
Where “and” joins values, the source holds several entries; their conditions need not be identical. Equal entries are not always repeated. Where two headings read alike, the source gives them in different places.

What was measured:
[1] = tested on: bacterial translation (E. coli S30 extract); assay: In vitro inhibition of translation in E. coli S30 extracts (luciferase reporter); format: biochemical; settings: mean ± SE of at least three independent repeats, read-out: Inhibition of translation—IC50, Bacteria
Excerpt: (§1) In order to assess cytosolic ribosome susceptibility and selectivity to putative anti-leishmanial compounds, we performed three different cell-free transcription-translation assays in S30 extracts of E. coli (Promega), rabbit reticulocytes (Promega) and L. tarentolae (Jena Bioscience). […] The ribosomes derived from this species are highly similar to L. donovani ribosomes. Three plasmids, compatible with each extract system, were used in this study: pBESTlucTM (Promega) for the prokaryotic translation assay, Luciferase T7 DNA (Promega) for the reticulocytes and pLEXSY-invitro2-EGFP (Jena Bioscience) for Leishmania. Firefly luciferase was used as a reporter gene for the bacterial and reticulocyte systems and EGFP for Leishmania. […] Assays were performed in white polystyrene 96-well flat bottom plates (Nunc) for the luciferase and black polystyrene 384-well flat-bottom plates (Greiner) for the EGFP. Incubation times were 60 min at 37 °C, 90 min at 30 °C and 120 min at 26 °C for the bacterial, reticulocyte and Leishmania systems, respectively. Reactions were stopped by quick snap cooling followed by a 5-min incubation on ice. Luciferase activity was measured for each well following the addition of 50 μl Luciferase Assay reagent (Promega) by recording the chemi-luminescence signal on […] (Tecan). EGFP fluorescence (λ ex = 488 nm; λ em = 507 nm) was recorded on Tecan Infinite R®F200 microplate reader (Tecan). Extracts lacking the circular DNA template were used as negative control to calculate the fluorescence/chemi-luminescence background. Reaction mixtures without compound presence were used as positive control and were regarded as 100% translation. At least six different concentrations were used to plot each translation inhibition curve, experiments were performed in three independent repeats in duplicates. Half-maximal inhibition concentration (IC50) values were calculated from the concentration–response fitting curves of using GraFit7 software.

[2] = tested on: leishmanial decoding (UGA stop codon read-through); assay: In vitro assessment of misreading (dual-luciferase UGA stop codon read-through) in L. tarentolae lysates; format: biochemical; settings: for Misreading activity (UGA stop codon read-through) at IC50 levels: at the compound's IC50 concentration, L. tarentolae lysates
Excerpt: To examine AG modes of action in Leishmania, we designed a dual-reporter assay whereby an in-frame linker containing a UGA stop mutation was introduced in between two genes encoding Renilla and Firefly luciferases cloned into an in vitro Leishmania expression system. A similar system was previously used to assess stop codon read-through events in bacteria as well as other eukaryotes, and as these levels seemed to correspond to tRNA misreading levels it has also been previously used to evaluate infidelity of translation[38],[39].
The content of a p2luc dual-luciferase derived from an SV-40 vector with either wild type or an in-frame TGA stop codon poly-linker was cloned into pLEXSY-invitro2 that is compatible with Leishmania in vitro translation (Jena Bioscience). SV-40 constructs were a generous gift by Professor Timor Baasov. Cloning has been performed by restriction-free (RF) PCR methodology as previously described by Unger et al.[40].
5′-[…]-3′ and 5′-[…]-3′ were used as forward and reverse primers, respectively. Primers were produced by custom design (Sigma). The in vitro misreading assays were performed in L. tarentolae lysates and were designed similarly to the inhibition of translation assay reported herein. The main modifications were that the final reaction volume was adjusted to 20 μl and that the assay has been performed in white polystyrene 96-well flatbottom plates (Nunc). Luciferase activity was determined after 120 min incubation at 26 °C, using the Dual luciferase reporter assay system (Promega) and was performed according to the manufacturer’s instructions.

[3] = molecular target: rabbit reticulocyte lysate translation; assay: In vitro inhibition of translation in rabbit reticulocyte lysates (luciferase reporter); format: biochemical; settings: mean ± SE of at least three independent repeats, read-out: Inhibition of translation—IC50, Reticulocytes
Excerpt: as §1

[4] = tested on: leishmanial cytosolic ribosome; assay: In vitro inhibition of translation in L. tarentolae lysates (cell-free transcription-translation, EGFP reporter); format: biochemical; settings: for IC50: L. tarentolae lysates, mean ± SE of at least three independent repeats, read-out: Inhibition of translation—IC50, Leishmania
Excerpt: as §1

[5] = tested on: rabbit reticulocyte lysate translation; parameters: method as in PMID 26264664; settings: rabbit reticulocyte lysates; mean ± SE; read-out: Inhibition of translation—IC50, Reticulocytes; cited from earlier work
[6] = tested on: bacterial translation (E. coli S30 extract); parameters: method as in PMID 26264664; settings: mean ± SE, read-out: Inhibition of translation—IC50, Bacteria; cited from earlier work

SMILES	IC50 [1] [nM]	Misreading activity (UGA stop codon read-through) at IC50 levels [2] [%]	IC50 [3] [nM]	IC50 [4]	Reduced activity in Leishmania compared to bacteria (inhibition of translation) ([4]; Leishmania versus bacterial ribosome, from Table 1)	IC50 [5] [nM]	IC50 [6] [nM]	Misreading of the genetic code (result in words) ([2]; at concentrations corresponding to its IC50 value)
CN[C@@H]1[C@@H](O[C@H]2O[C@H](CO)[C@@H](N)[C@H](O)[C@H]2O)OC2C[C@@H](N)[C@@H](O[C@H]3[C@H](O)[C@@H](O)[C@H](N)C[C@@H]3N)OC2[C@@H]1O (stereo partly shown) [APR, apramycin]	49 ± 3	5	29000 ± 6000	201000 ± 16100 nM	4 orders of magnitude	–	–	–
CN[C@@H]1[C@@H](O)[C@@H](O[C@@H]2[C@@H](O)[C@H](O[C@H]3O[C@H]([C@@H](C)O)[C@@H](O)[C@H](O)[C@H]3N)[C@@H](N)C[C@H]2N)OC[C@]1(C)O [G418, geneticin]	–	–	–	150 nM and 153 nM	–	2000 ± 300	9 ± 1.5	–
CNC(C)C1CCC(N)C(OC2C(N)CC(N)C(OC3OCC(C)(O)C(NC)C3O)C2O)O1 (stereo not shown) [GEN, gentamicin]	28 ± 4	–	62000 ± 9000	18400 nM	–	–	–	–
CNC1CC(N)C(O)C(OC2OC(CO)C(O)C3OC4(OC(C(N)CO)C(O)C(O)C4O)OC23)C1O (stereo not shown) [HYG, hygromycin B]	11 ± 2	–	800 ± 100	65 nM and 64.7 nM	–	–	–	does not induce misreading
NC[C@@H]1O[C@H](O[C@H]2[C@@H](O)[C@H](O[C@@H]3[C@@H](O)[C@H](N)C[C@H](N)[C@H]3O[C@H]3O[C@H](CN)[C@@H](O)[C@H](O)[C@H]3N)O[C@@H]2CO)[C@H](N)[C@@H](O)[C@@H]1O [NEO, neomycin B]	11 ± 1	–	28000 ± 5000	82400 nM	–	–	–	–
NC[C@@H]1O[C@H](O[C@H]2[C@@H](O)[C@H](O[C@@H]3[C@@H](O)[C@H](N)C[C@H](N)[C@H]3O[C@H]3O[C@H](CO)[C@@H](O)[C@H](O)[C@H]3N)O[C@@H]2CO)[C@H](N)[C@@H](O)[C@@H]1O [PAR, paromomycin]	–	26	–	3620 ± 176 nM	–	57000 ± 4000	51 ± 5	–
